Here are results for one compound from patent US9340574B2, “Inhibitors of protein tyrosine phosphatases” (Indiana University Research and Technology Corporation, priority 2012, dated 2016).

The target of assay [1] is VHR (Homo sapiens (Human), UniProt P51452). The assay can be described thus: pNPP hydrolysis enzyme assay, VHR. It counts as biochemical. As to the method: (§1) Enzyme kinetic assay. PTP activity was assayed using p-nitrophenyl phosphate (pNPP) as a substrate in 3,3-dimethylglutarate buffer (50 mM 3,3-dimethylglutarate, pH 7.0, 1 mM EDTA, 150 mM NaCl, 2 mM DTT, 0.1 mg/mL BSA) at 25° C. The assays were performed in 96-well plates. Normally, to determine the IC50 values, the reaction was initiated by the addition of enzyme (final concentration at 10 nM) to a reaction mixture (0.2 mL) containing 2 mM (Km for the substrate) pNPP with various concentrations of inhibitors. The reaction rate was measured using a SpectraMax Plus 384 Microplate Spectrophotometer (Molecular Devices). To determine the mode of inhibition, the reactions were initiated by the addition of PTP-MEG2 to the reaction mixtures (0.2 mL) containing various concentrations of pNPP with different concentrations of the inhibitor 7. Data were fitted using SigmaPlot Enzyme Kinetics Module (Systat Software, Inc.).
VHR, sequence (P51452 whole entry, species assumed): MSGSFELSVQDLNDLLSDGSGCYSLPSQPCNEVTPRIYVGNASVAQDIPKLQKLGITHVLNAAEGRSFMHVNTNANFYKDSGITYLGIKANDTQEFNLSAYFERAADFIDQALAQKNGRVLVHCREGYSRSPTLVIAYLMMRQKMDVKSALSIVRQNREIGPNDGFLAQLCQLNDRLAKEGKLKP

Assay [2] has as its target PTPβ (Homo sapiens, UniProt P23467). In words: pNPP hydrolysis enzyme assay, PTPβ. The assay is classed as biochemical. As to the method: as §1
In assay [3] the test system is diet-induced obese C57BL/6 mice. The assay can be described thus: Pyruvate tolerance test in diet-induced obese mice. The assay is classed as in vivo, mouse. Particulars: 5 mg/kg i.p. twice a day. As to the method:
C57BL/6J mice were fed a high-fat diet for 10 weeks before Compound 7 or vehicle was injected intraperitoneally twice a day at a dose of 5 mg/kg body weight. FIG. 5A depicts insulin tolerance tests (ITT) performed on Day 7 by injecting intraperitoneally a bolus of 0.75 unit/kg of human regular insulin. […] FIG. 5C depicts glucose tolerance tests (GTT) carried out on Day 9 after a bolus of 1 g/kg glucose was injected intraperitoneally. […] FIG. 5E depicts pyruvate tolerance tests (PTT) performed on Day 12 after an injection of 2 g/kg pyruvate solution. […] At the end of 2-week injections of Compound 7, animals were fasted overnight and stimulated with a bolus of 1 unit of human regular insulin or saline via vena cava. Three minutes later, liver, skeletal muscle, and white adipose tissue (WAT) were collected sequentially for insulin signaling analysis. FIG. 5G depicts the phosphorylation of Tyr1162/1163 in insulin receptor (IR) and Ser473 phosphorylation in Akt kinases and the corresponding proteins in the liver, skeletal muscle, and white adipose tissue (WAT) were analyzed by immunoblots.
To this end, we intraperitoneally injected Compound 7 into diet-induced obese C57BL/6 mice at a dose of 5 mg/kg twice a day. […] After 7 days of injections, we performed insulin tolerance tests to measure insulin sensitivity in vehicle and Compound 7 treated mice.

For assay [4], the target named is PTPγ (Homo sapiens (Human), UniProt P23470). The assay can be described thus: pNPP hydrolysis enzyme assay, PTPγ. The assay is classed as biochemical. As to the method:
as §1

In assay [5] the test system is panel of mammalian PTPs (PTP-MEG1, SHP1, SHP2, Lyp, FAP-1, PTP-PEST, PTPH1, Laforin, HePTP, CD45, LAR, DEP1, PTPμ, PTPγ, PTPβ, PTPε, VHR, VHX). The assay can be described thus: Inhibition of a panel of mammalian PTPs at 10 μM. The assay is classed as biochemical. As to the method: as §1

PTPβ, sequence (P23467 23-1997 limits assumed): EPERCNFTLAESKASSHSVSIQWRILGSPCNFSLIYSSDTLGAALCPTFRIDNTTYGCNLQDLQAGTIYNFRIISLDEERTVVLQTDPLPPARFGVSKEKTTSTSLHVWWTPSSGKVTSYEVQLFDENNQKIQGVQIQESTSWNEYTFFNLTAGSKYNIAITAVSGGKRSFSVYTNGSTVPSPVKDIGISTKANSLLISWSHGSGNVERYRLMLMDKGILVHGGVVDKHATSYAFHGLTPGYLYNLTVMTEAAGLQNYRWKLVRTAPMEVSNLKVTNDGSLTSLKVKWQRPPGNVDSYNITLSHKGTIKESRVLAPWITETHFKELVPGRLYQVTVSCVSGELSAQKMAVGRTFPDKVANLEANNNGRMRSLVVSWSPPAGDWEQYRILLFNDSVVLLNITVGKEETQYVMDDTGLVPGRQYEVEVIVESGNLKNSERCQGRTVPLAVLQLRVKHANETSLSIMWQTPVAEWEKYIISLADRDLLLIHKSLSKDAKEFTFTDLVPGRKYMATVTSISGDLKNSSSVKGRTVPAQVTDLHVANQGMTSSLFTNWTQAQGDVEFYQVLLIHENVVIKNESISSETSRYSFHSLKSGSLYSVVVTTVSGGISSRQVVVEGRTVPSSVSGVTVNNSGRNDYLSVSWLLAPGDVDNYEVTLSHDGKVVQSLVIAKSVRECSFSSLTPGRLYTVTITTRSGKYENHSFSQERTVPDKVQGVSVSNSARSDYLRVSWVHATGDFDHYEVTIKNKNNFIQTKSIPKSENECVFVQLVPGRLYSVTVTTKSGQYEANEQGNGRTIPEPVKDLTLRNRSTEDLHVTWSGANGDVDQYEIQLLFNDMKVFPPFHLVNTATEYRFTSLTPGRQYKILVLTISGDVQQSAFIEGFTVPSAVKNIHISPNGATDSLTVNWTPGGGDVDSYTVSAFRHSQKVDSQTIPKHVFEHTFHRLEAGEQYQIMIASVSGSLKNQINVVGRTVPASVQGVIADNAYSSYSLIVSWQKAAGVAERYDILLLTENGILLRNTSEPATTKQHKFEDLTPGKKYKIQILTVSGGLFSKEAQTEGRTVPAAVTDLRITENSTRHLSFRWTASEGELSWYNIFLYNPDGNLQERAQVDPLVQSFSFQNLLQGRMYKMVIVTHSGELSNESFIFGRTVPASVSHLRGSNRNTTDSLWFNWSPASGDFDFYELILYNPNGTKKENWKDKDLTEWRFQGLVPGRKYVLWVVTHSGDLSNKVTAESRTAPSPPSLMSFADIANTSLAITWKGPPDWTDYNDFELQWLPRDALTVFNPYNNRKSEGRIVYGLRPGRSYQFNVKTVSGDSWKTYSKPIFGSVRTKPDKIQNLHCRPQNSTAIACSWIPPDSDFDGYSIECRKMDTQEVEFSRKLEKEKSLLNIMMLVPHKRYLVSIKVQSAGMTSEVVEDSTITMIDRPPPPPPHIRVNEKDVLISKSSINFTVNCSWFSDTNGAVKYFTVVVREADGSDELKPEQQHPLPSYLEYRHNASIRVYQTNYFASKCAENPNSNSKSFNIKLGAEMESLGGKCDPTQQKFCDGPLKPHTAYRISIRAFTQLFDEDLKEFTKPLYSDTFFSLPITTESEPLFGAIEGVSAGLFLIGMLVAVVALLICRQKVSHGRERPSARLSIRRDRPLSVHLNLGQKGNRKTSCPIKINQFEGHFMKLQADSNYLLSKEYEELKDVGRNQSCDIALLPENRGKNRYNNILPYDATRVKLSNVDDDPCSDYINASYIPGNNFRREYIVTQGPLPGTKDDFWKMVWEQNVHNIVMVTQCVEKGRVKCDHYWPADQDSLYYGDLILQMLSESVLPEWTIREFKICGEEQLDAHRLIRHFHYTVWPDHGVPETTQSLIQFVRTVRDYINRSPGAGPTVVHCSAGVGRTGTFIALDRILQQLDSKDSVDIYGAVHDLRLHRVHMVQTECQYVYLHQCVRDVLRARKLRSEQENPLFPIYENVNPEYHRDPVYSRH
PTPγ, sequence (P23470 20-1445): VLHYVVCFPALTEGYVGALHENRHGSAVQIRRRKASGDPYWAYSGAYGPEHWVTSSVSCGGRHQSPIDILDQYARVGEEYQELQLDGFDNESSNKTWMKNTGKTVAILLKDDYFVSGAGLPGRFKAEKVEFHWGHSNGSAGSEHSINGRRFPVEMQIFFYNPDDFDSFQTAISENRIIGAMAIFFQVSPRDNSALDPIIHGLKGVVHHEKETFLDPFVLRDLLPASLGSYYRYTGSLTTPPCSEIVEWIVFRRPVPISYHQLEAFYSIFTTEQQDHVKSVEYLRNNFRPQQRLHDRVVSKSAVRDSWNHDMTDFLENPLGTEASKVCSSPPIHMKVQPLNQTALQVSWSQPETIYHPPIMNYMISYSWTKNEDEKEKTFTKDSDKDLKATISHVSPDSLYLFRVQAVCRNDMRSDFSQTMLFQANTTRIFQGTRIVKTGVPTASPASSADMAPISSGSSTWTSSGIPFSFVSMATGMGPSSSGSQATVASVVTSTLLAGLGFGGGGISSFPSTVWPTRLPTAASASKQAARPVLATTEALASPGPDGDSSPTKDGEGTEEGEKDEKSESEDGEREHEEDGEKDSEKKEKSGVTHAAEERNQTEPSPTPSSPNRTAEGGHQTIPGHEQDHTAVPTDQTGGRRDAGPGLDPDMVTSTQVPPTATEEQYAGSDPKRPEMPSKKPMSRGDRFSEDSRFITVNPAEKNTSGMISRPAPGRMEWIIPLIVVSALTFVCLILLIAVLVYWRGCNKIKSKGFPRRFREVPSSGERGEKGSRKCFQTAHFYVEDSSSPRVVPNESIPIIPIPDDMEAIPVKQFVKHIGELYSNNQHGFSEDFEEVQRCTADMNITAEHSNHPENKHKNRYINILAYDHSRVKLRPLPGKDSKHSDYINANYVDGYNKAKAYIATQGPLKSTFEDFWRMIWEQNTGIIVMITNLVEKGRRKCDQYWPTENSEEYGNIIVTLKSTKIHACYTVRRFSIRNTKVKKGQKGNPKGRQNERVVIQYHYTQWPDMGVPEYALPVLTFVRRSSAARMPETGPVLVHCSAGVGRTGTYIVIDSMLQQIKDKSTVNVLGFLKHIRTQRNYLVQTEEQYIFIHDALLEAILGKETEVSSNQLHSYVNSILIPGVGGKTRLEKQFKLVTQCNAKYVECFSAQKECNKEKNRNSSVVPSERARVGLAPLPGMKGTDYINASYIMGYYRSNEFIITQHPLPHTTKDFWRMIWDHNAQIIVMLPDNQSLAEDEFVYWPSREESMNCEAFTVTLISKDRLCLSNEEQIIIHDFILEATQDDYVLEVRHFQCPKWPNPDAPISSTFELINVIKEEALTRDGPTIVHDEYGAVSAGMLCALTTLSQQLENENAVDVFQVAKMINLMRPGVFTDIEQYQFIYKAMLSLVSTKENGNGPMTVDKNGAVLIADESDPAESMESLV

What is called IC50 is the concentration at which inhibition is half-maximal. Low readings indicate greater potency in that assay, high ones weaker potency in that assay. As for `COc1cc(CC(=O)NCC(NC(=O)C(CCCNC(=O)c2cccc(I)c2)NC(=O)C(Cc2ccc(C(F)(F)P(=O)(O)O)cc2)NC(=O)c2ccc(C)c(Br)c2)C(N)=O)ccc1O` (stereo not drawn) [Compound 7], the IC50 in assay [1], in assay [2] and in assay [4] was greater than 10000 nM in each case. In addition, the “hepatic gluconeogenesis in pyruvate tolerance test” value in assay [3] (Day 12) is “significant suppression of hepatic gluconeogenesis”. Moreover, the “better pyruvate tolerance (AUC)” value in assay [3] (Day 12, vs vehicle) came out at 25%. The “inhibition of a panel of mammalian PTPs” value in assay [5] is given as “no inhibition”.
